According to the supplement of paper PMC10290057:

Tests used:
HCT116 [1] = assay: AC50 cell viability (CellTiter-Glo); higher = less potent; conditions: 48 h
HCT116 [2] = assay: efficacy (fitted maximal change in viability relative to DMSO control); higher = less cytotoxic (negative = loss of viability); conditions: 48 h
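For AC50 cell viability (CellTiter-Glo) in this document: HCT116 colorectal carcinoma cells screened at five concentrations per compound, luminescent viability scaled between DMSO wells and empty wells on each plate, curves fitted per compound.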
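For efficacy (fitted maximal change in viability relative to DMSO control) in this document: Luminescence-based viability readout, five doses per compound, normalized against on-plate DMSO and empty-well controls, followed by dose-response curve fitting for every drug.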

Compound: C[S+](=O)([O-])c1ccc(-c2nnc(/C=C/c3nnc(-c4ccc(C#N)cc4)o3)n2-c2ccccc2Cl)nc1 [G-007-LK]
- AC50 cell viability (HCT116 [1]): 14.8 µM
- efficacy (HCT116 [2]): -48.4%

Compound: CN(C)c1ccccc1CN1CCCN(Cc2ccccc2N(C)C)C1c1ccncc1 [GANT-61]
- AC50 cell viability (HCT116 [1]): 18.6 µM
- efficacy (HCT116 [2]): -88.6%

Compound: O=C(Nc1ccnc(NC(=O)C2CC2)c1)c1c(Cl)cccc1Cl [GDC-046]
- AC50 cell viability (HCT116 [1]): 2.35 µM
- efficacy (HCT116 [2]): -79.8%

Compound: CC1(C)OCCn2c1nc1c(N3CCOCC3)nc(-c3cnc(N)nc3)nc12 [GDC-0084]
- AC50 cell viability (HCT116 [1]): 0.833 µM
- efficacy (HCT116 [2]): -58.4%

Compound: CC(C)n1ncnc1-c1cn2c(n1)-c1ccc(O[C@@H](C)C(N)=O)cc1OCC2 [GDC-0326]
- AC50 cell viability (HCT116 [1]): 6.61 µM
- efficacy (HCT116 [2]): -72.2%

Compound: CCNC(=O)Nc1ccc(-c2nc3c(c(N4CCOC[C@@H]4C)n2)CCN(C2COC2)C3)cc1 [GDC-0349]
- AC50 cell viability (HCT116 [1]): 3.32 µM
- efficacy (HCT116 [2]): -46.9%

Compound: O=C(NOCCO)c1ccc2cncn2c1Nc1ccc(I)cc1F [GDC-0623]
- AC50 cell viability (HCT116 [1]): 11.8 µM
- efficacy (HCT116 [2]): -43.9%

Compound: Cc1c(CN2CCN(C(=O)[C@H](C)O)CC2)sc2c(N3CCOCC3)nc(-c3cnc(N)nc3)nc12 [GDC-0980]
- AC50 cell viability (HCT116 [1]): 0.525 µM
- efficacy (HCT116 [2]): -57.1%

Compound: CN(C)C1=C(Br)C=C(C=C1)C\2NC3=C(\C4=C2C(=O)CC(C)(C)C4)C5=CC=CC=C5C=C3 (stereo unspecified) [GLS-968]
- AC50 cell viability (HCT116 [1]): 9.34 µM
- efficacy (HCT116 [2]): -31.2%

Compound: N#C/N=C(\NCCCCCCOc1ccc(Cl)cc1)Nc1ccncc1 [GMX-1778]
- AC50 cell viability (HCT116 [1]): 0.0132 µM
- efficacy (HCT116 [2]): -93.3%

Compound: COC1(c2sc3c(N4CCOCC4)nc(-c4cnc(N)nc4)nc3c2C)COC1 [GNE-317]
- AC50 cell viability (HCT116 [1]): 0.59 µM
- efficacy (HCT116 [2]): -58.4%

Compound: Cc1c(CN2CCN([S+](C)(=O)[O-])CC2)sc2c(N3CCOCC3)nc(-c3cnc(N)nc3)nc12 [GNE-477]
- AC50 cell viability (HCT116 [1]): 0.59 µM
- efficacy (HCT116 [2]): -57.8%

Compound: Cc1nc(N)ncc1-c1nc(N2CCOCC2)c2sc(C(C)(C)O)cc2n1 [GNE-490]
- AC50 cell viability (HCT116 [1]): 2.63 µM
- efficacy (HCT116 [2]): -66.6%

Compound: CC(C)(O)c1cc2nc(-c3cnc(N)nc3)nc(N3CCOCC3)c2s1 [GNE-493]
- AC50 cell viability (HCT116 [1]): 0.833 µM
- efficacy (HCT116 [2]): -55.2%

Compound: O=C(NCc1ccc([S+](=O)([O-])c2cccc(C(F)(F)F)c2)cc1)c1cnc2[nH]ncc2c1 [GNE-618]
- AC50 cell viability (HCT116 [1]): 0.0166 µM
- efficacy (HCT116 [2]): -90.4%

Compound: N#Cc1ccnc(Nc2cc(C3CCN(C4COC4)CC3)cc(N3CCC(F)(F)C3)n2)c1 [GNE-3511]
- AC50 cell viability (HCT116 [1]): 0.833 µM
- efficacy (HCT116 [2]): -77.1%

Compound: CNc1nc(Nc2cnn([C@H]3CCN(C4COC4)C[C@@H]3F)c2Cl)ncc1C(F)(F)F [GNE-9605]
- AC50 cell viability (HCT116 [1]): 4.68 µM
- efficacy (HCT116 [2]): -51.4%

Compound: NC(=O)c1cccc(-c2cc(Nc3ccc(OC(F)(F)F)cc3)ncn2)c1 [GNF-2]
- AC50 cell viability (HCT116 [1]): 18.6 µM
- efficacy (HCT116 [2]): -97.5%

Compound: Cc1ccc(Nc2ncc3c(n2)N(C)C(=O)N(c2cc(NC(=O)c4cccc(C(F)(F)F)c4)ccc2C)C3)cn1 [GNF-7]
- AC50 cell viability (HCT116 [1]): 0.0332 µM
- efficacy (HCT116 [2]): -69.3%

Compound: Cc1ccc(NC(=O)Nc2cc(C(F)(F)F)ccc2F)cc1Nc1ccc2c(c1)NC(=O)/C2=C\c1ccc[nH]1 [GNF-5837]
- AC50 cell viability (HCT116 [1]): 14.8 µM
- efficacy (HCT116 [2]): -97.5%

Compound: NC1=NC(=C(C#N)C(=N1)N)N[C@@H](C2CC2)\C3=N\C4=C(C(=CC=C4F)Cl)C(=O)N3C5=CC=CN=C5 [GS-9901]
- AC50 cell viability (HCT116 [1]): 18.6 µM
- efficacy (HCT116 [2]): -71%

Compound: O=C/1NC(=O)C(=C1C2=CN=C3C=CC=C[N]23)/C4=C[N]5CCN(CC6=C5C4=CC=C6)C(=O)N7CCOCC7 [GSK3 Inhibitor]
- AC50 cell viability (HCT116 [1]): 9.34 µM
- efficacy (HCT116 [2]): -85.7%

Compound: CC\1=C(C(\N=C(/N1)C2=CC(=NC=C2)Cl)C3=C(F)C=C(Cl)C=C3)/C(=O)NC4=C(F)C=C5[NH]N=CC5=C4 (stereo unspecified) [GSK-25]
- AC50 cell viability (HCT116 [1]): 29.5 µM
- efficacy (HCT116 [2]): -97.8%
